Source: US12390437B2, “Itaconic acid derivatives and uses thereof intreating an inflammatory disease or a disease associated with an undesirable immune response” (Sitryx Therapeutics Limited, priority 2019, dated 2025)

How the values were obtained:
[1] = tested on: IL-1β cytokine output from isolated primary human monocytes; assay: Primary human monocyte AlphaLISA IL-1β cytokine assay; format: cell-based; conditions: CD14+ primary human monocytes, LPS 24 hr then Nigericin 1 hour
Experimental: Measuring Inhibitory Effects on IL-1β and IL-6 Cytokine Output from Isolated Primary Human Monocytes
The cytokine inhibition profiles of compounds of formula (IW-1) were determined in a CD14^+ isolated primary human monocyte cell assay. All assays were performed in RPMI-1640 growth medium (Gibco), supplemented with heat-inactivated fetal bovine serum (FBS) and 1% penicillin-streptomycin unless specified otherwise. The IL-1β and IL-6 cytokine inhibition assays were each run in a background of isolated primary human monocyte cells as described below. All reagents described were from Sigma-Aldrich unless specified otherwise. Compounds were prepared as 100 mM DMSO stocks.
Primary peripheral blood mononuclear cells (PBMCs) were isolated from human whole blood. Following PBMC isolation, a CD14^+ monocyte isolation step was conducted whereby CD14^+ magnetic beads (Miltenyi Biotec) were incubated for 15 minutes with the PBMC suspension that was previously treated with ice cold T-cell isolation buffer (PBS, 0.5% BSA, 2 mM EDTA). Following bead incubation, the treated cell suspension was passed through a magnetic separation column designed to positively select for magnetically labelled cells. The isolated CD14^+ monocytes were subsequently plated at the appropriate cell density for the assay, prior to compound treatment on the day of plating. Working concentrations of compounds were prepared separately in RPMI-1640 only growth medium and pre-incubated with the cells for 30 minutes (37° C./5% CO2). Following the 30 minute compound pre-incubation, primary monocytes were treated with an appropriate concentration of LPS and subsequently incubated for a 24 hr period (37° C./5% CO2). An appropriate final concentration of Nigericin was then dispensed into the primary monocyte plates and incubated for 1 hour (37° C./5% CO2) before monocyte supernatants were harvested and collected in separate polypropylene 96-well holding plates prior to commencing the AlphaLISA cytokine assay.
Reagents from each of the IL-1β and IL-6 commercial kits (Perkin Elmer) were prepared and run according to the manufacturer's instructions. Subsequently, fluorescence signal was measured in a microplate reader (EnVision® Multilabel Reader, Perkin Elmer).
Percentage inhibition was calculated per cytokine by normalising the sample data to the high and low controls used within each plate (+/−LPS respectively). Percentage inhibition was then plotted against compound concentration and the 50% inhibitory concentration (IC50) was determined from the resultant concentration-response curve.

hepatocytes [2] = assay: Hepatocyte stability assay (human); format: in vitro ADME; conditions: 10 μM compound, 0.5×10^6 cells/mL, 60 minutes
Excerpt: (§1) Defrosted cryo-preserved hepatocytes (viability >70%) are used to determine the metabolic stability of a compound via calculation of intrinsic clearance (Clint; a measure of the removal of a compound from the liver in the absence of blood flow and cell binding). Clearance data are particularly important for in vitro work as they can be used in combination with in vivo data to predict the half-life and oral bioavailability of a drug.
(§2) The metabolic stability in hepatocytes assay involves a time-dependent reaction using both positive and negative controls. The cells must be pre-incubated at 37° C. then spiked with test compound (and positive control); samples taken at pre-determined time intervals are analysed to monitor the change in concentration of the initial drug compound over 60 minutes. A buffer incubation reaction (with no hepatocytes present) acts as a negative control and two cocktail solutions, containing compounds with known high and low clearance values (verapamil/7-hydroxycoumarin and propranolol/diltiazem), act as positive controls. • 1. The assay is run with a cell concentration of 0.5×10^6 cells/mL in Leibovitz buffer. • 2. All compounds and controls are run in duplicate. • 3. Compound concentration is 10 μM. • 4. All compounds and controls are incubated with both cells and buffer to show turnover is due to hepatic metabolism. • 5. All wells on the incubation plate will have 326.7 μL of either cells or buffer added. • 6. Prior to assay, cell and buffer-only incubation plates are preincubated for 10 mins at 37° C. • 7. The assay is initiated by adding compounds, 3.3 μL of 1 mM in 10% DMSO-90% Buffer; final DMSO concentration is 0.1%. • 8. Samples are taken at regular timepoints (0, 5, 10, 20, 40, 60 min) until 60 mins. • 9. Sample volume is 40 μL and it is added to 160 μL of crash solvent (acetonitrile with internal standard) and stored on ice. • 10. At the end of the assay, the crash plates are centrifuged at 3500 rpm for 20 mins at 4° C. • 11. 80 μL of clear supernatant is removed and mixed with 80 μL of deionised water before being analysed by LC-MS/MS.
(§3) Raw LC-MS/MS data are exported to, and analysed in, Microsoft Excel for determination of intrinsic clearance. The percentage remaining of a compound is monitored using the peak area of the initial concentration as 100%. Intrinsic clearance and half-life values are calculated using a graph of the natural log of percentage remaining versus the time of reaction in minutes. Half-life (min) and intrinsic clearance (Clint in μL min^−1 10^−6 cells) values are calculated using the gradient of the graph (the elimination rate constant, k) and Equations 1 and 2.

hepatocytes [3] = assay: Hepatocyte stability assay (mouse); format: in vitro ADME; conditions: 10 μM compound, 0.5×10^6 cells/mL, 60 minutes
Excerpt: as §1, §2, §3

[4] = tested on: IL-1β cytokine output from THP-1s; assay: THP-1 AlphaLISA IL-1β cytokine assay; format: cell-based, human; conditions: Homo sapiens, THP-1, PMA-differentiated THP-1 cells, LPS 24 hr then Nigericin 1 hour; read-out: IL-1β (IC50)
Outline: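 Cells are differentiated with PMA over 72 h, switched to 1% FBS medium and treated with compound for 30 min before LPS stimulation for 24 h. Nigericin is added for a final hour, and secreted cytokine is measured by AlphaLISA, with IC50 fitted from percent inhibition.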

[5] = Mouse pharmacokinetic study, intravenous dosing; format: in vivo; conditions: male, C57BL/6, mouse, iv, plasma, 10 mg/kg i.v., read-out: Parent compound concentration following intravenous administration
Outline: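 Plasma drug levels were quantified by LC-MS/MS from K2EDTA facial-vein semi-serial bleeds (N=3 per time point) in male C57BL/6 mice aged 6-8 weeks. Gavage dosing used 100 mg/kg (5% DMSO/HPMC-Tween vehicle, 5 min–24 h); tail-vein dosing used 10 mg/kg (10% DMSO/HP-β-CD vehicle, 3 min–8 h).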

[6] = Hepatocyte stability assay (human); format: in vitro ADME; conditions: cryopreserved hepatocytes, 10 μM compound, 0.5×10^6 cells/mL, 60 minutes, read-out: T½
Excerpt: as §1, §2, §3

[7] = Hepatocyte stability assay (mouse); format: in vitro ADME; conditions: cryopreserved hepatocytes, 10 μM compound, 0.5×10^6 cells/mL, 60 minutes, read-out: T½
Excerpt: as §1, §2, §3

Row | IC50 [4] | concentration at 0.05 h ([5]; time 0.05 h) | concentration at 0.133 h ([5]; time 0.133 h) | concentration at 0.25 h ([5]; time 0.25 h) | concentration at 0.5 h ([5]; time 0.5 h) | concentration at 1 h ([5]; time 1 h) | concentration at 2 h ([5]; time 2 h) | concentration at 4 h ([5]; time 4 h) | concentration at 6 h ([5]; time 6 h) | concentration at 8 h ([5]; time 8 h) | half-life at 10 μM [6] | half-life at 10 μM [7] | SMILES | IC50 [1] | CIint (μL min^−1 10^−6 cells) (hepatocytes [2]) | T½ (hepatocytes [2]) | CIint (μL min^−1 10^−6 cells) (hepatocytes [3]) | T½ (hepatocytes [3])
1 | – | – | – | – | – | – | – | – | – | – | – | – | C=C(CC(=O)OCCCCCCCC)C(=O)O [4-octyl itaconate, 4-Octyl itaconate, reference compound] | > 100 µM | 401 μL min^−1 10^−6 cells | 4 min | 351 μL min^−1 10^−6 cells | 4 min
2 | 11 µM | 17900 ng/mL | 5320 ng/mL | 1810 ng/mL | 456 ng/mL | 13 ng/mL | < 4 ng/mL | < 4 ng/mL | < 4 ng/mL | < 4 ng/mL | 129 min | 13 min | C=C(CC(=O)O[C@H]1C[C@H]2CC[C@]1(C)C2(C)C)C(=O)OCC(=O)O [Example 179, 2-((2-methylene-4-oxo-4-(((1R,2S,4R)-1,7,7-trimethylbicyclo[2.2.1]heptan-2-yl)oxy)butanoyl)oxy)acetic acid] | – | 13 μL min^−1 10^−6 cells | – | 129 μL min^−1 10^−6 cells | –
